Like-named read-outs stand apart in the source and are kept apart here.
How the values were obtained:
human 5-HT6 receptor [1] = target: T1, human 5-HT6 receptor (Homo sapiens, UniProt P50406); assay: Effect on the cAMP response of human 5-HT6 receptors in stably transfected HEK293 cells (EIA); format: cell-based
T1 construct: expressed in transfected cells
Protocol: The antagonist (or agonist) property of compounds for human 5-HT6 receptors was determined by testing their effect on cAMP accumulation in stably transfected HEK293 cells.
Binding of an agonist to the human 5-HT6 receptor will lead to a increase in adenyl cyclase activity. A compound which is an agonist will show an increase in cAMP production and a compound which is an antagonist will block the agonist effect.
Cell Assay: Human 5-HT6 receptors were cloned and stably expressed in HEK293 cells. These cells were plated in 6 well plates in DMEM/F12 media with 10% fetal calf serum (FCS) and 500 μg/mL G418 and incubated at 37° C. in a CO2 incubator. The cells were allowed to grow to about 70% confluence before initiation of the experiment.
On the day of the experiment, the culture media was removed, and the cells were washed once with serum free medium (SFM). Two mL of SFM+IBMX media was added and incubated at 37° C. for 10 min. The media were removed and fresh SFM+IBMX media containing various compounds, and 1 μM serotonin (as antagonist) were added to the appropriate wells and incubated for 30 min. Following incubation, the media were removed and the cells were washed once with 1 mL of PBS (phosphate buffered saline). Each well was treated with 1 mL cold 95% ethanol and 5 mM EDTA (2:1) at 4° C. for 1 hour. The cells were then scraped and transferred into Eppendorf tubes. The tubes were centrifuged for 5 min at 4° C., and the supernatants were stored at 4° C. until assayed.
cAMP Measurement: cAMP content was determined by EIA (enzyme-immunoassay) using the Amersham Biotrak cAMP EIA kit (Amersham RPN 225). The procedure used is as described for the kit. Briefly, cAMP is determined by the competition between unlabeled cAMP and a fixed quantity of peroxidase-labelled cAMP for the binding sites on anti-cAMP antibody. The antibody is immobilized onto polystyrene microtitre wells precoated with a second antibody. […] The reaction is stopped by the addition of 100 μL 1.0 M sulphuric acid and the resultant color read by a microtitre plate spectrophotometer at 450 nM within 30 minutes. […]

human 5-HT2C receptor = target: T2, human 5-HT2C receptor (Homo sapiens, UniProt P28335); assay: Binding selectivity for 5-HT6 relative to the human 5-HT2C receptor; details: 5-HT6 vs human 5-HT2C receptor
T2 sequence (P28335 33-458): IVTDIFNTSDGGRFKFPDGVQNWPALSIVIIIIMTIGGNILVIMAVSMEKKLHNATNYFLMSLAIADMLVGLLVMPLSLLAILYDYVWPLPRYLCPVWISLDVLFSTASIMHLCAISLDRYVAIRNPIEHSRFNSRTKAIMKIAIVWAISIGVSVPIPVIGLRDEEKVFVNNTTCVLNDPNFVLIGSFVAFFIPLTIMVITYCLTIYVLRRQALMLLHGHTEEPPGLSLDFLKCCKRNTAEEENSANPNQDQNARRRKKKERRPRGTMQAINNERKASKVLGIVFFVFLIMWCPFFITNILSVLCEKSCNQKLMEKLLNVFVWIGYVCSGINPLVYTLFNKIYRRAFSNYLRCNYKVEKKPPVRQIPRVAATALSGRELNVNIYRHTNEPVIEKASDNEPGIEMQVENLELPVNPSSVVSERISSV

human 5-HT7 receptor = human 5-HT7 receptor (Homo sapiens, UniProt P34969); assay: Binding selectivity for 5-HT6 relative to the human 5-HT7 receptor; details: 5-HT6 vs human 5-HT7 receptor
human 5-HT6 receptor [2] = target: T1, human 5-HT6 receptor; assay: Binding affinity for the 5-HT6 receptor (3H-LSD radioligand binding, membranes of cells expressing the 5-HT6 receptor); details: 60 minute incubation at 37° C.
Protocol: All of the compounds of the invention were evaluated using cell types receptive specifically to the 5-HT6 receptor (for cloning and characterization of the human 5-HT6 receptor see Kohen, et al. J. Neurochemistry, 66, 1996: 47-56). […] After a 60 minute incubation at 37° C., the incubation was terminated by vacuum filtration. The filters were washed with buffer and the filters were counted for radioactivity using liquid scintillation spectrometry. The affinity of the test compound for the 5-HT6 receptor was determined by computer-assisted analysis of the data and determining the amount of the compound necessary to inhibit 50% of the binding of the radioligand to the receptor. Concentrations ranging from 10^-11 M to 10^-5 M of the test compound were evaluated.

T1 sequence (P50406 whole entry): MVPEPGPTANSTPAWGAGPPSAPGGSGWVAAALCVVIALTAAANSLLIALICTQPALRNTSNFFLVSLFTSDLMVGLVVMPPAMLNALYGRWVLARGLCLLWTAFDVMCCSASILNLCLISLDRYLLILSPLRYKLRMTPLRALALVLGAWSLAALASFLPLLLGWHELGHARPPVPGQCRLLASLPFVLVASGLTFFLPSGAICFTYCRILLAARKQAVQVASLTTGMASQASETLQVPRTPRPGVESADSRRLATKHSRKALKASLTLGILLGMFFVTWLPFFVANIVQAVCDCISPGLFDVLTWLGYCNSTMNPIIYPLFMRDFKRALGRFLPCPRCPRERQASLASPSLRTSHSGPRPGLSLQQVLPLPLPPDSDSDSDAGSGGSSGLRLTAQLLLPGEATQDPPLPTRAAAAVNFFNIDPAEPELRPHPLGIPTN
human 5-HT7 receptor, sequence (P34969 whole entry): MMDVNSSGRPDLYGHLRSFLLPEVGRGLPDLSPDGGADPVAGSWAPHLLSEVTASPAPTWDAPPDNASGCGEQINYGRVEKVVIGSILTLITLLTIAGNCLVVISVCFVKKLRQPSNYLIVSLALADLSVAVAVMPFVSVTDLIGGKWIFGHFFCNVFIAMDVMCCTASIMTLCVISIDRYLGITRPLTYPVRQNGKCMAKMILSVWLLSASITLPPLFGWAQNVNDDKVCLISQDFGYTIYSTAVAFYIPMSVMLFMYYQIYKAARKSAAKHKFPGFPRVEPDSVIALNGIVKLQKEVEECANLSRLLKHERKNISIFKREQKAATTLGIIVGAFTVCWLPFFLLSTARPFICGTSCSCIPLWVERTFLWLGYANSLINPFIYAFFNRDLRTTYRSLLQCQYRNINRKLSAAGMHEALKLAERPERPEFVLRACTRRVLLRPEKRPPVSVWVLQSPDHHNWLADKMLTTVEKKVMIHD

Row | Structure (SMILES) | Ki (human 5-HT6 receptor [2]; Ki) | also measured
1 | CN1CCC[C@@H]1Cc1cn(C(=O)c2ccc(F)cc2)c2ccc(Cl)cc12 [Example 5r, (R)-5-Chloro-1-(4-fluorobenzoyl)-3-(1-methyl-2-pyrrolidinylmethyl)indole] |  | EC50 (human 5-HT6 receptor [1]): 6 nM; greater affinity for human 5-HT6 receptor relative to human 5-HT2C (human 5-HT2C receptor): ≥ 36 fold; greater affinity for human 5-HT6 receptor relative to human 5-HT7 (human 5-HT7 receptor): ≥ 36 fold
2 | CN1CCC[C@@H]1Cc1cn(C(=O)c2ccccc2)c2ccc(OC3CCCCC3)cc12 [Example 7a, (R)-5-Cyclohexyloxy-3-(1-methyl-2-pyrrolidinylmethyl)-1-benzoylindole] | ≤ 10 nM | 
3 | CN1CCC[C@@H]1Cc1cn(C(=O)c2ccccc2)c2ccc(Cl)cc12 [Example 5p, (R)-1-Benzoyl-5-chloro-3-(1-methyl-2-pyrrolidinylmethyl)indole] | ≤ 1 nM | 
4 | CN1CCC[C@@H]1Cc1cn(S(=O)(=O)c2ccccc2)c2ccc(OC3CCCCC3)cc12 [Example 4, (R)-5-Cyclohexyloxy-3-(1-methyl-2-pyrrolidinylmethyl)-1-phenylsulfonylindole] | ≤ 1 nM | 
5 | CN1CCC[C@@H]1Cc1cn(C(=O)c2c(Cl)cccc2Cl)c2ccc(OC3CCCCC3)cc12 [Example 5n, (R)-5-Cyclohexyloxy-1-(2,6-dichlorobenzoyl)-3-(1-methyl-2-pyrrolidinylmethyl)indole] |  | greater affinity for human 5-HT6 receptor relative to human 5-HT2C (human 5-HT2C receptor): ≥ 36 fold; greater affinity for human 5-HT6 receptor relative to human 5-HT7 (human 5-HT7 receptor): ≥ 36 fold
6 | CN1CCC[C@@H]1Cc1cn(S(=O)(=O)c2ccccc2)c2ccc(O)cc12 [Example 10, (R)-1-Phenylsulfonyl-5-hydroxy-3-(1-methyl-2-pyrrolidinylmethyl)indole] | ≤ 10 nM | 
7 | CN1CCC[C@@H]1Cc1cn(C(=O)c2ccccc2)c2ccccc12 [Example 5g, (R)-1-Benzoyl-3-(1-methyl-2-pyrrolidinylmethyl)indole] | ≤ 10 nM | 
8 | CN1CCC[C@@H]1Cc1cn(C(=O)c2ccccc2Cl)c2ccc(OC3CCCCC3)cc12 [Example 5j, (R)-1-(2-Chlorobenzoyl)-5-cyclohexyloxy-3-(1-methyl-2-pyrrolidinylmethyl)indole] |  | EC50 (human 5-HT6 receptor [1]): 64 nM
9 | CN1CCC[C@@H]1Cc1cn(C(=O)c2ccccc2)c2ccc(Br)cc12 [Example 7d, (R)-1-Benzoyl-5-bromo-3-(1-methyl-2-pyrrolidinylmethyl) indole] | ≤ 1 nM | 
10 | CN1CCC[C@@H]1Cc1cn(S(=O)(=O)c2ccccc2)c2ccc(OCc3ccccc3)cc12 [Example 7e, (R)-5-Benzyloxyindole-3-(1-methyl-2-pyrrolidinylmethyl)-1-phenylsulfonylindole] |  | Ki (human 5-HT6 receptor [2]; read-out: Ki): ≤ 1 nM
11 | Cc1ccc(S(=O)(=O)n2cc(C[C@H]3CCCN3C)c3cc(F)ccc32)cc1 [Example 7c, (R)-5-Fluoro-1-(4-methylphenylsulphonyl)-3-(1-methyl-2-pyrrolidinylmethyl)-indole] | ≤ 1 nM | 
12 | CN1CCC[C@@H]1Cc1cn(S(=O)(=O)c2ccccc2)c2ccc(Cl)cc12 [Example 5d, (R)-5-Chloro-3-(1-methyl-2-pyrrolidinylmethyl)-1-phenylsulfonylindole] | ≤ 1 nM | EC50 (human 5-HT6 receptor [1]): 8.4 nM

From patent US6100291A, “Pyrrolidine-indole compounds having 5-HT6 affinity” (Allelix Biopharmaceuticals Inc., priority 1998, dated 2000)
